According to patent US5411964A, “Phenylalanine-glycine compounds having anti-tumor activity, process for preparation thereof, and pharmaceutical composition containing said compounds” (Kureha Chemical Industry Co., Ltd., priority 1992, dated 1995):

How the values were obtained:
[1] = test system: Sarcoma-180; assay: Antitumor activity: inhibition of solid Sarcoma-180 tumor implanted subcutaneously in ICR mice; assay type: in vivo; settings: day 22, i.p. 10 times every other day, mg/kg: 5-Fu 15, MP 10, 5-CAU 10, Phe+5-Fu 15+15, Phe+MP 15+10, Phe+5-CAU 15+10, Phe-5-Fu 30, Phe'-5-Fu 30, Phe-MP 20, Phe-5-CAU 20; for Average tumor weight ± SD: control 3.438 ± 1.481, in g (unit assumed)
Protocol: The concentration of the solid tumor cells (Sarcoma-180) was aseptically adjusted to 1×10^6 /0.2 ml with a medium [prepared by filtering 10% bovine fetal serum-added MEM (Eagles' Minimum Essential Medium) for sterilization, and stored at 4° C.] and subcutaneously implanted at the axillas of ICR mice (5 weeks old; females; one group consisting of 10 mice). From the next day, the samples (0.15% physiological saline solution) shown in Table 1 were administered intraperitoneally 10 times every other day. On the 22nd day, the tumors were excised and the inhibition rate (IR) was obtained from the weight of the tumors. The inhibition rate (IR) (%) was calculated by the following formula: […]
wherein T is the average tumor weight of the treated group, and C is the average tumor weight of the control group.

[2] = test system: Wistar rats; assay: Acute toxicity, oral forced administration to Wistar rats; assay type: in vivo; settings: 250 mg/kg by forced administration, fasted male Wistar rats, observed until 14 days
Protocol: (1) The conditions in the feeding chamber were arranged to a temperature of 23°±1° C., a relative humidity of 55±5%, a ventilation frequency of 20 times per hour, and a lighting term of 12 hours. Wistar rats (male; five-week old;. 120 to 141 g) were used. The rats were placed in metallic cages having wire walls in the front and bottom thereof, at the rate of 5 rats per one cage. They were allowed food (MF: Oriental Yeast) and water ad libitum.
The conjugate (I-1) of the present invention obtained from Example 1(5) was suspended in a 1.5% methylcellulose aqueous solution. The suspension was administered by force. The amount of the administration was 1 ml per 100 g body weight of animals forced to fast for 18 hours, that is, 250 mg/kg was administered. Symptoms of addiction and survival were observed hourly up to 8 hours after the administration, then twice a day until 14 days after administration.

[3] = test system: pyruvate kinase M2-type isoenzyme; settings: low concentration of L-phenylalanine; cited from earlier work

Compound	IR (inhibition rate from tumor weight) [1] [%]	Average tumor weight ± SD [1]	Survival / death after administration [2]	inhibition of M2-type isoenzyme of pyruvate kinase (in words) [3]
CCOC(=O)C(NC(=O)[C@@H](N)Cc1ccccc1)N[C@@H](Cc1ccc(N(CCCl)CCCl)cc1)C(=O)OC (stereo partly drawn) [Phe-MP, L-phenylalanyl-2-[p-(bis(2-chloroethyl)amino)-L-phenylalaninemethylester-2-yl]-D,L-glycineethylester]	72.6	0.943 ± 0.587	–	–
O=c1[nH]cc(N(CCCl)CCCl)c(=O)[nH]1 [5-CAU, 5-[bis(2-chloroethyl)amino]uracil, reference compound]	54.2	1.574 ± 1.285	–	–
N[C@@H](Cc1ccccc1)C(=O)NC(C(=O)O)n1cc(F)c(=O)[nH]c1=O (mixture of isomers) [Phe-5-Fu, L-phenylalanyl-2-(5-fluorouracil-1-yl)-D,L-glycine]	77.6	0.770 ± 0.397	No death was observed	–
N[C@@H](Cc1ccccc1)C(=O)O [L-phenylalanine]	–	–	–	selectively inhibited
CCOC(=O)C(NC(=O)[C@@H](N)Cc1ccccc1)n1cc(F)c(=O)[nH]c1=O (mixture of isomers) [Phe'-5-Fu, L-phenylalanyl-2-(5-fluorouracil-1-yl)-D,L-glycineethylester]	76.5	0.808 ± 0.389	–	–
N[C@@H](Cc1ccc(N(CCCl)CCCl)cc1)C(=O)O [MP, Melphalan, reference compound]	60.5	1.358 ± 1.369	–	–
O=c1[nH]cc(F)c(=O)[nH]1 [5-Fu, 5-fluorouracil, reference compound]	57.3	1.467 ± 1.437	–	–
N[C@@H](Cc1ccccc1)C(=O)NC(C(=O)O)n1cc(N(CCCl)CCCl)c(=O)[nH]c1=O (mixture of isomers) [Phe-5-CAU, L-phenylalanyl-2-[5-(bis(2-chloroethyl)amino)uracil-1-yl]-D,L-glycine]	75.2	0.854 ± 0.664	–	–
